Molecules are shown by their SMILES.

For orientation: Kd means the equilibrium constant for the complex coming apart.

The target of this experiment is MlaC (Smlt4673) (Stenotrophomonas maltophilia, UniProt B2FP85). Description: MicroScale Thermophoresis (MST), supported by nanoDSF Tm shift. The format is binding.
Chain of MlaC (Smlt4673) (B2FP85 entry or part of it): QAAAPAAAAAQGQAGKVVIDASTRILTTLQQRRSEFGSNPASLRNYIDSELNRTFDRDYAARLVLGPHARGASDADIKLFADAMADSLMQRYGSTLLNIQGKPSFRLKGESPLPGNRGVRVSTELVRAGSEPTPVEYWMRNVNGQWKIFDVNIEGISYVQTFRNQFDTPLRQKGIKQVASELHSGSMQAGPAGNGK

For the compound `CCCCCCCCCCCCCC(=O)OC[C@H](COP(=O)(O)OCCN)OC(=O)CCCCCCCCCCCCC` [PE14/14, PE C14:0/C14:0], the equilibrium dissociation constant (Kd) worked out at 795 µM.

The record behind these values is publication PMC10925693, “The Mla system and its role in maintaining outer membrane barrier function in Stenotrophomonas maltophilia” (Frontiers in Cellular and Infection Microbiology, 2024).
